Results on 14 compounds are retold here after patent US20210038607A1, “OXADIAZOLYLTHIOPHENE DERIVATIVES USEFUL AS HISTONE DEACETYLASE INHIBITORS” (Karus Therapeutics Limited, priority 2018, published 2021).

One assay addresses T1, Human HDAC9 (Homo sapiens, UniProt Q9UKV0).
T1 construct: amino acids 604-1066 with C-terminal His tag; His (C); host or cells: baculovirus expression system
In words: HDAC9 biochemical assay, class IIa-specific substrate. Conditions: read-out: HDAC Isoform IC50 (nM) 9. In a few lines: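 HDAC9 residues 604-1066 (C-terminal His tag, baculovirus-expressed) at 0.06 ng/ul with 50 μM class IIa substrate Boc-Lys(trifluoroacetyl)-AMC in Tris-HCl pH 8.0 buffer with BSA and 1% DMSO. 30 min at room temperature, then developer added; fluorescence read at 360/460 nm Ex/Em.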

Assay [1] has as its target T2, Complex of human HDAC3 and human NCOR2 (Homo sapiens, UniProt O15379).
T2 construct: full length with C-terminal His tag, MW=49.7 kDa; His (C); host or cells: baculovirus expression system (co-expressed)
In words: HDAC3 biochemical assay, AMC-labeled peptide substrate. To be noted: read-out: HDAC Isoform IC50 (nM) 3. On the procedure:
(§1) Activity against all zinc-dependent HDACs 1 to 11 was assessed by using an acetylated AMC-labeled peptide substrate. The substrate RHKK(Ac)AMC was used for HDAC1, HDAC2, HDAC3, HDAC6 and HDAC10; the substrate used for HDAC8 was RHK(Ac)K(Ac)AMC. Activity against the class IIa HDACs (HDAC4, 5, 7, 9) and HDAC11 was determined using a class IIa-specific substrate, BOC-Lys(trifluoroacetyl)-AMC (“Trifluoroacetyl Lysine”; see Lahm et al, 2007, PNAS, 104, 17335-17340). All assays were based on the AMC-labeled substrate and developer combination.
(§2) The protocol involved a two-step reaction: first, the substrate with the acetylated lysine side chain is incubated with a sample containing HDAC activity, to produce the deacetylated products, which are then digested in the second step by the addition of developer to produce the fluorescent signal proportional to the amount of deacetylated substrates.
Complex of human HDAC3 (GenBank Accession No. NM_003883), full length with C-terminal His tag, MW=49.7 kDa, and human NCOR2 (amino acid 395-489) (GenBank Accession No. NM_006312), N-terminal GST tag, MW=37.6 kDa, co-expressed in baculovirus expression system.
(§3) Assay Buffer: 50 mM Tris-HCl, pH8.0, 137 mM NaCl, 2.7 mM KCl, 1 mM MgC2. Before use, 1 mg/mL BSA and DMSO are added.
HDAC3: 0.1 ng/ul HDAC3 and 50 μM HDAC substrate are in the reaction buffer with 1% DMSO final. Incubate for 1 hour at 30° C.
(§4) Stage 1: Deacetylation of substrate by incubation of HDAC enzymes with compounds
(§5) Stage 2: Development by addition of Developer to digest the deacetylated substrate, and generate the fluorescent colour; Detection: 360/460 Ex/Em

For the next assay, the target named is T3, Human HDAC8 (Homo sapiens, UniProt Q9BY41).
T3 construct: full length with C-terminal His tag, MW=42.6 kDa; His (C); host or cells: baculovirus expression system
T3 sequence (Q9BY41 1-377): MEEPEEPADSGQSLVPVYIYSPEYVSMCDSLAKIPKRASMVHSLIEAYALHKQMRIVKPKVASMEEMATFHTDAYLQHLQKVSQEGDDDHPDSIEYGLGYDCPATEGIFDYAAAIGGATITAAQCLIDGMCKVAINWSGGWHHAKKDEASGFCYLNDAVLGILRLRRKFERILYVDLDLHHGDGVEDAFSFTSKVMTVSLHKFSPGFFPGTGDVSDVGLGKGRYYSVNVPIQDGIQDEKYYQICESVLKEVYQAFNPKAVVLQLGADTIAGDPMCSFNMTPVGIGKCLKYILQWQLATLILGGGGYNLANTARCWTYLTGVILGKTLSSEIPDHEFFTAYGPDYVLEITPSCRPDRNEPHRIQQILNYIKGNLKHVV
In words: HDAC8 biochemical assay, AMC-labeled peptide substrate. To be noted: read-out: HDAC Isoform IC50 (nM) 8. The protocol: as §1, §2
Human HDAC8 (GenBankAccession No. NM_018486), full length with C-terminal His tag, MW=42.6 kDa, expressed in a baculovirus expression system.
as §3
HDAC8: 1 ng/ul HDAC8 and 100 µM HDAC8 substrate are in the reaction buffer with 1% DMSO final. Incubate for 2 hours at 30° C.
as §4, §5

In a further assay the target is T4, Human HDAC7 (Homo sapiens, UniProt Q8WUI4).
T4 construct: (a.a. 518-end) with N-terminal GST tag; GST (N); host or cells: baculovirus expression system
T4 sequence (Q8WUI4 518-952 limits assumed): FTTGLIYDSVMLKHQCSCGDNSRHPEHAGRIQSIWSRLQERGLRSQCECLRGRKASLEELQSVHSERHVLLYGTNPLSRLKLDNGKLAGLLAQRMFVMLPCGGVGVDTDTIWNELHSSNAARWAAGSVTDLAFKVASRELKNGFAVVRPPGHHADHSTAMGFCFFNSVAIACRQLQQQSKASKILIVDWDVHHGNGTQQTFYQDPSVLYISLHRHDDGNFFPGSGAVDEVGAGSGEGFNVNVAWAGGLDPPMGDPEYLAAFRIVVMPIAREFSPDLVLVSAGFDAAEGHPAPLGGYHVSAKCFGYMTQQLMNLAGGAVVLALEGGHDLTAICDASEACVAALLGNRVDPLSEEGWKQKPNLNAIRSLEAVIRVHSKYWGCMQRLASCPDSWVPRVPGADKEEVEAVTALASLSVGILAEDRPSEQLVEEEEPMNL
Kind of assay: HDAC7 biochemical assay, class IIa-specific substrate. Conditions: read-out: HDAC Isoform IC50 (nM) 7. In a few lines:
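Two-step fluorogenic readout: class IIa-selective trifluoroacetyl-lysine AMC substrate (50 μM) deacetylated by N-terminal GST-HDAC7 fragment (0.001 ng/ul), then digested by developer, Ex/Em 360/460. Reaction: 30 min, room temperature, Tris-HCl pH 8.0, NaCl/KCl/MgCl2, 1 mg/mL BSA, 1% DMSO.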

T2 sequence (O15379 whole entry): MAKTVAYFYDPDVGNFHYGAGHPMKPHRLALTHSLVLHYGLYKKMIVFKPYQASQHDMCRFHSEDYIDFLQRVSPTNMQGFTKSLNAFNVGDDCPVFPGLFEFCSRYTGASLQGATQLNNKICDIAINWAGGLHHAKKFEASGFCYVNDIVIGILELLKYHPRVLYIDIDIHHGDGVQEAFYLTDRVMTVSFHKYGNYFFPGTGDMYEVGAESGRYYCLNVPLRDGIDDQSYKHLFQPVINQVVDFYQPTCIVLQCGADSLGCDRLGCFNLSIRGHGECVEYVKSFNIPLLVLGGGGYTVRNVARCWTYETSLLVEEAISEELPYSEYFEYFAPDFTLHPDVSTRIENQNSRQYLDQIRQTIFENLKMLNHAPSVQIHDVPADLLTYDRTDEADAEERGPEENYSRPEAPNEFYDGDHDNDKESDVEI
T2 sequence (Q9Y618 395-489 partner limits assumed): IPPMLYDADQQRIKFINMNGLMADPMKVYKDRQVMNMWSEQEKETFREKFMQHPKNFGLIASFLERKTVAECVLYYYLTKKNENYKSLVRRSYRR
T1 sequence (Q9UKV0 604-1066 isoform Q9UKV0-5): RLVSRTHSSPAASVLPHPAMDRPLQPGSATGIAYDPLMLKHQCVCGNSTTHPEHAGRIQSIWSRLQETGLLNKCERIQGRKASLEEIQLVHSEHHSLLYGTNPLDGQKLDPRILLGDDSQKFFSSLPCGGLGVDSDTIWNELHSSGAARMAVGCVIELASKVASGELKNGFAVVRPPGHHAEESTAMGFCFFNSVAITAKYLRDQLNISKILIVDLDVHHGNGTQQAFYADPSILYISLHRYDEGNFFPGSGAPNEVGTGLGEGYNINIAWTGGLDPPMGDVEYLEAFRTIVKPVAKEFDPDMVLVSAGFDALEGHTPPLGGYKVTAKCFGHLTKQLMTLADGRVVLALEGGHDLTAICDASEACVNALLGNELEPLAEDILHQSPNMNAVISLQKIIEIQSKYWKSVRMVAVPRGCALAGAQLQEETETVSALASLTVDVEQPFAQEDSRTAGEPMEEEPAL

The term IC50 denotes the concentration needed to halve the response being measured. Consider `O=C(O)c1cnnc(N(Cc2sc(-c3noc(C(F)(F)F)n3)cc2F)c2cnccn2)c1` [Example FA, 6-[({3-fluoro-5-[5-(trifluoromethyl)-1,2,4-oxadiazol-3-yl]thiophen-2-yl}methyl)(pyrazin-2-yl)amino]pyridazine-4-carboxylic acid], for which the IC50 is at most 10000 nM at Human HDAC9, at most 10000 nM in assay [1], at most 10000 nM on Human HDAC8 and at most 1000 nM on Human HDAC7.
Turning to `O=C(c1ccc(N(Cc2ccc(-c3noc(C(F)(F)F)n3)s2)c2cnccn2)nn1)N1C[C@@H]2C[C@H]1C[S@@+]2[O-]` [Example FR, (1S,2R,4S)-5-{6-[(Pyrazin-2-yl)({5-[5-(trifluoromethyl)-1,2,4-oxadiazol-3-yl]thiophen-2-yl}methyl)amino]pyridazine-3-carbonyl}-2-thia-5-azabicyclo[2.2.1]heptan-2-ium-2-olate], the IC50 is at most 1000 nM on Human HDAC9, at most 10000 nM in assay [1], at most 10000 nM on Human HDAC8 and at most 500 nM on Human HDAC7.
As to `FC(F)(F)c1nc(-c2ccc(CN(c3cnccn3)c3ncccn3)s2)no1` [Example AS, N-(Pyrimidin-2-yl)-N-({5-[5-(trifluoromethyl)-1,2,4-oxadiazol-3-yl]thiophen-2-yl}methyl)pyrazin-2-amine], the IC50 at Human HDAC9 was at most 10000 nM; in assay [1], over 10000 nM; on Human HDAC8, at most 10000 nM; at Human HDAC7 it was at most 10000 nM.
Turning to `COC1(C(F)(F)F)CN(C(=O)c2cnnc(N(Cc3ccc(-c4noc(C(F)(F)F)n4)s3)c3cnccn3)c2)C1` [Example GL, 5-[3-Methoxy-3-(trifluoromethyl)azetidine-1-carbonyl]-N-(pyrazin-2-yl)-N-({5-[5-(trifluoromethyl)-1,2,4-oxadiazol-3-yl]thiophen-2-yl}methyl)pyridazin-3-amine], the IC50 (on Human HDAC9; in assay [1]; on Human HDAC8; on Human HDAC7) was at most 10000 nM each time.
In the case of `CNC(=O)c1ccc(N(Cc2ccc(-c3noc(C(F)(F)F)n3)s2)c2cnccn2)nn1` [Example FC, N-Methyl-6-[(pyrazin-2-yl)({5-[5-(trifluoromethyl)-1,2,4-oxadiazol-3-yl]thiophen-2-yl}methyl)amino]pyridazine-3-carboxamide], the IC50 at Human HDAC9 was at most 10000 nM; in assay [1], at most 10000 nM; on Human HDAC8 it was at most 10000 nM; on Human HDAC7 it was at most 500 nM.
As for `O=C(c1cnnc(N(Cc2ccc(-c3noc(C(F)(F)F)n3)s2)c2cnccn2)c1)N1CCCC1` [Example EA, N-(Pyrazin-2-yl)-5-(pyrrolidine-1-carbonyl)-N-({5-[5-(trifluoromethyl)-1,2,4-oxadiazol-3-yl]thiophen-2-yl}methyl)pyridazin-3-amine], the IC50 (on Human HDAC9; in assay [1]; on Human HDAC8; on Human HDAC7) was at most 10000 nM each time.
As to `O=C(c1ccc(N(Cc2ccc(-c3noc(C(F)(F)F)n3)s2)c2cnccn2)nn1)N1CC[S+]([O-])CC1` [Example FD, 4-{6-[(Pyrazin-2-yl)({5-[5-(trifluoromethyl)-1,2,4-oxadiazol-3-yl]thiophen-2-yl}methyl)amino]pyridazine-3-carbonyl}-1lambda4-thiomorpholin-1-one], the IC50 on Human HDAC9 is at most 10000 nM; in assay [1] it was at most 10000 nM; at Human HDAC8 it was at most 10000 nM; on Human HDAC7 it was at most 500 nM.
For `O=C(c1ccc(N(Cc2ccc(-c3noc(C(F)(F)F)n3)s2)c2cnccn2)nn1)N1CC(O)(C(F)(F)F)C1` [Example FK, 1-{6-[(Pyrazin-2-yl)({5-[5-(trifluoromethyl)-1,2,4-oxadiazol-3-yl]thiophen-2-yl}methyl)amino]pyridazine-3-carbonyl}-3-(trifluoromethyl)azetidin-3-ol], the IC50 on Human HDAC9 is at most 500 nM; in assay [1], at most 10000 nM; on Human HDAC8 it was at most 1000 nM; at Human HDAC7 it was at most 500 nM.
With `O=C(c1ccc(N(Cc2ccc(-c3noc(C(F)(F)F)n3)s2)c2cnccn2)nn1)N1CCC12COC2` [Example FH, 6-{6-Oxa-1-azaspiro[3.3]heptane-1-carbonyl}-N-(pyrazin-2-yl)-N-({5-[5-(trifluoromethyl)-1,2,4-oxadiazol-3-yl]thiophen-2-yl}methyl)pyridazin-3-amine], the IC50 at Human HDAC9 was at most 1000 nM; in assay [1] it was at most 10000 nM; on Human HDAC8 it was at most 10000 nM; on Human HDAC7, at most 500 nM.
On to `COC1CN(C(=O)c2ccc(N(Cc3ccc(-c4noc(C(F)(F)F)n4)s3)c3cnccn3)nn2)C1` [Example DR, 6-(3-Methoxyazetidine-1-carbonyl)-N-(pyrazin-2-yl)-N-({5-[5-(trifluoromethyl)-1,2,4-oxadiazol-3-yl]thiophen-2-yl}methyl)pyridazin-3-amine], for which the IC50 on Human HDAC9 is at most 500 nM; in assay [1] it was at most 10000 nM; at Human HDAC8 it was at most 10000 nM; on Human HDAC7 it was at most 500 nM.
Turning to `Cc1cncc(N(Cc2ccc(-c3noc(C(F)(F)F)n3)s2)c2cnccn2)n1` [Example BP, 6-Methyl-N-(pyrazin-2-yl)-N-({5-[5-(trifluoromethyl)-1,2,4-oxadiazol-3-yl]thiophen-2-yl}methyl)pyrazin-2-amine], the IC50 on Human HDAC9 was at most 10000 nM; in assay [1], over 10000 nM; on Human HDAC8 it was at most 10000 nM; at Human HDAC7, at most 10000 nM.
`COc1cncc(N(Cc2ccc(-c3noc(C(F)(F)F)n3)s2)c2cc(C(F)(F)F)cnn2)n1` [Example EN, N-(6-Methoxypyrazin-2-yl)-5-(trifluoromethyl)-N-({5-[5-(trifluoromethyl)-1,2,4-oxadiazol-3-yl]thiophen-2-yl}methyl)pyridazin-3-amine]: the figures for the IC50 on Human HDAC9 and at Human HDAC7 were over 10000 nM and at most 10000 nM, respectively.
The corresponding values for `FC(F)(F)c1cnnc(N(Cc2ccc(-c3noc(C(F)(F)F)n3)s2)c2cc(C(F)(F)F)cnn2)c1` [Example EU, 5-(Trifluoromethyl)-N-({5-[5-(trifluoromethyl)-1,2,4-oxadiazol-3-yl]thiophen-2-yl}methyl)-N-[5-(trifluoromethyl)pyridazin-3-yl]pyridazin-3-amine] are over 10000 nM and at most 10000 nM.
The corresponding values for `FC(F)(F)c1cnnc(N(Cc2ccc(-c3noc(C(F)(F)F)n3)s2)c2cccnn2)c1` [Example ER, N-(Pyridazin-3-yl)-5-(trifluoromethyl)-N-({5-[5-(trifluoromethyl)-1,2,4-oxadiazol-3-yl]thiophen-2-yl}methyl)pyridazin-3-amine] are at most 10000 nM and at most 10000 nM.
